Data taken from patent US20140230091A1, “MODIFIED PLANTS WITH INCREASED OIL CONTENT” (BROOKHAVEN SCIENCE ASSOCIATES, LLC, priority 2011, published 2014).

What was measured:
[1] = test system: fatty acid synthesis in B. napus cells; test: 14C-acetate / 14C-malonate labeling of lipids (feedback inhibition of fatty acid synthesis); format: cell-based, Brassica napus; settings: for Relative 14C-acetate incorporation (% control): relative to a control sample without any Tweens, mean of three repeats ± SD
Description: All radioisotopes were obtained from American Radiolabeled Chemicals (St. Louis, Mo. USA). Labeling was conducted on cells 5 days after subculturing with a culture density of ˜20 mg FW mL^−1 and that had medium refreshed 16 h prior. For labeling, three 1 mL aliquots of cells were carefully removed from each flask and were labeled with either 0.2 μCi of 1,2-^14C-acetate (50-60 mCi mmol^−1) or 2-^14C-malonate (40-60 mCi mmol^−1) for 15 minutes at 25° C. with occasional shaking. Haloxyfop (Sigma) was dissolved in DMSO and added 30 min prior to labeling. Lipids were extracted and separated by TLC as described above. Radioactivity was detected by phosphorimaging and was quantified using ImageQuant software (GE Healthcare, Piscataway, N.J., USA). Incorporation of label into individual fatty acids was determined by making FAMEs as described above, separating the methyl esters by TLC as described in (Koo, Fulda, Browse and Ohlrogge 2005, Plant J, 44, 620-632) and measuring radioactivity by phosphorimaging.
Feedback inhibition of fatty acid synthesis was measured by the addition of a ^14C-acetate tracer. […] Sterol synthesis is dependent on acetyl-CoA and ATP, both of which are required for fatty acid synthesis. Therefore, if fatty acid synthesis is inhibited due to substrate limitation; so should be sterol biosynthesis. ^14C-acetate incorporation into sterols was unaffected by Tween-80 feeding, while incorporation into free fatty acids mirrored that of total lipids (FIG. 5), showing that the effect is restricted to fatty acid synthesis. […] Three hour time points were used for the remainder of this study to separate the period of maximum feedback inhibition from any lipid homeostatic mechanisms arising from the gross fatty acid compositional changes caused by long term Tween-80 feeding.
Plants contain plastidic and cytosolic ACCase and F AS enzyme systems, both of which are capable of incorporating ^14C-acetate into fatty acids. Comparing the distribution of label in individual fatty acid species can therefore provide information on the relative contribution of these pathways. […] The degree to which ^14C-acetate incorporation is inhibited by haloxyfop is proportional to cytosolic elongation activity, whereas haloxyfop-resistant incorporation is from the de nova pathway inside the plastid.
To separate these possibilities, we exploited the fact that exogenous malonate can be converted to malonyl-CoA and used by FAS, bypassing the ACCase reaction (Kannangara et al. 1973, Plant Physiol, 52, 156-161). If ACCase is the only point of inhibition then the rate of ^14C-malonate labeling of de novo fatty acids should be the same in cultures with or without Tween-80. […] Therefore ACCase, and not F AS, is inhibited by Tween-80 feeding. When combined, the data from FIG. 6 unambiguously identify plastidic ACCase as the target of Tween-80 induced feedback inhibition.

[2] = test system: ACCase; test: ACCase enzyme assay on crude cell extracts; format: biochemical, Brassica napus
Description: All chemicals were obtained from Sigma and radioisotopes from American Radiolabeled Chemicals. ACCase activity was measured as the acetyl-CoA dependent incorporation of ^14C—NaHC03 into acid and stable products. Crude cell extracts were prepared by grinding fresh cells in 3 volumes (w/v) of 50 mM Tris-Cl, pH 7.5, 100 mM KCl, 5 mM MgCl2, 1 mM DTT, 0.1% TritonX-100, 10% glycerol, and plant protease inhibitor cocktail (Sigma). Homogenate was gently mixed on ice for 10 min and then centrifuged for 5 min at 3000 g. Desalting of extracts was done with PD-10 columns (GE Life Sciences). […] Reactions were initiated by the addition of 5 μlL cell extract and were stopped by the addition of 15 μL 12 N HCL. The contents were dried completely at 55° C. and the solids were resuspended in 30 μL water and counted by liquid scintillation spectroscopy. Minus acetyl-CoA controls were always included. Assays went for 30 min, except when measuring the effects of metabolites (10 min). Metabolites were added to the reaction immediately after cell extract to preserve labile thioester bonds. FFA stock solutions were made in ethanol and acyl-CoAs were suspended in water.

[3] = target: Brassica napus plastidic (heteromeric) acetyl-CoA carboxylase, endogenous enzyme in crude cell extracts (Brassica napus); test: cell-based or functional assay
[4] = test system: B. napus cells; test: Quantification of fatty acid uptake from 13C-oleoyl-Tween by B. napus cells; format: cell-based, Brassica napus; settings: 10 mM 13C-oleoyl-Tween
Description: Lipids were extracted from up to 100 mg fresh weight of frozen cells by homogenizing twice in 500 μL of methanol:chloroform:formic acid (20:10:1 v/v) using glass beads. The combined organic solvent was extracted with 500 μL of 1 M KCl, 0.2 M H3PO4 and the organic phase was recovered, dried under N2, and resuspended in hexane. Lipid classes were separated by TLC using silica gel G TLC Uniplates (Analtech, Newark, Del., USA) with hexane:diethylether:acetic acid (80:20:1, v/v) for neutral lipids or with acetone:toluene:water (91:30:7 v/v) with 0.15 M ammonium sulfate impregnated plates for polar lipids. Loading was equivalent to 10 or 20 mg fresh weight. Lipids were visualized with iodine vapor.
Fatty acid quantification was done by analysis of fatty acid methyl esters (FAMEs). […] FAMEs resuspended in hexane were analyzed with an HP6890 gas chromatograph-flame ionization detector (Agilent Technologies) or an HP5890 gas chromatograph-mass spectrometer (Hewlett-Packard) fitted with 60 m×250 μm SP-2340 capillary columns (Supelco). […]
1-^13C-oleic acid was obtained from Cambridge Isotope Laboratories (Andover, Mass., USA). […] Lipid extraction and GC/MS was done as described above. ^13C-fatty acids were detected and quantified and corrected for natural isotope abundance as previously described (Schwender et al. 2003, J Biol Chem, 278, 29442-29453). […]

[5] = test system: B. napus cells; test: Quantification of free fatty acid, acyl-ACP and acyl-CoA pools in cells; format: cell-based, Brassica napus; settings: cells fed 13C-oleoyl-Tween, at 3 hours
Description: Free fatty acids were extracted from tissue by quenching ˜300 mg of frozen cells in 2 mL boiling isopropanol for 5 min. Once cooled, 2 mL of 0.9% NaCl was added and lipids were extracted twice with 4 mL of hexane. Neutral lipids were separated by TLC and free fatty acids were scraped, made into FAMEs, and analyzed by GC-FID or GC-MS as described above. Acyl-CoAs were extracted from ˜15 mg FW of cells and quantified as previously described (Larson and Graham 2001, Plant J, 25, 115-125). Acyl-ACPs were extracted and quantified as previously described (Kopka, Ohlrogge and Jaworski 1995, Anal Biochem, 224, 51-60) with the following modifications: 1) Internal standards used were 11:0-CoA (Sigma) and 17:0—ACP made from Spinach ACP as previously described (Broadwater and Fox 1999, Protein Expr Purif, 15, 314-326). 2) Fully dissolving TCA precipitated proteins required three extractions with MOPS buffer rather than just one.
1986 Plant Physiol, 82, 771-779). Free fatty acids can be activated by esterification to CoA or ACP before being deposited in cellular lipids. Steady state pools acyl-ACP and acyl-CoA as well as free fatty acids (FFA) were measured in cells fed Tween-80. After three hours of feeding, 18:1 FFA appeared where there was none detected in untreated cells (FIG. 9a). […] In a separate experiment designed to distinguish the incorporation of fatty acids from Tween from secondary effects of feedback inhibition, FFA and acylACPs were analyzed in cells fed ^13C-oleoyl-Tween. […] First, the in vivo concentrations of these intermediates were calculated based on the range of values in FIG. 9 and the water content of the cells. […] However, considering that acyl-ACPs are restricted to the plastid, the volume of which in developing embryos was determined to be 10% of the cell (Mansfield and Briarty 1992, Can J Bot, 70, 151-164), the estimate increased to 5-10 μM. […] Thioesterase activity was measured using the same conditions as the ACCase assay. […]

Tween-18:1 was tested, and the “inhibition of acetate labeling of lipids” value ([1]; in words) was “maximum inhibition” and the “Relative 14C-acetate incorporation (% control)” value [1] was 51.5 ± 6.7 % control.
`CCCCCCCC/C=C\CCCCCCCC(=O)SCCNC(=O)CCNC(=O)[C@H](O)C(C)(C)COP(=O)(O)OP(=O)(O)OC[C@H]1O[C@@H](n2cnc3c(N)ncnc32)[C@H](O)[C@@H]1OP(=O)(O)O` [18:1-CoA, 18:1-Coenzyme A] was tested, and the “extent of ACCase inhibition” value ([2]; crude extract, physiological range of concentrations) was “partial”.
Tween-60 was tested, and the “Relative 14C-acetate incorporation (% control)” value [1] was 85.9 ± 3.4 % control.
“B. napus 18:1-ACP (18:1-Acyl Carrier Protein made from BnACP, GenBank:X13127.1, with 6x his-tag)” gave an ACCase activity in crude B. napus cell extracts (acetyl-CoA dependent incorporation of 14C-NaHCO3, 10 min assay) [3] of over 3 µM.
For Tween-40, the “Relative 14C-acetate incorporation (% control)” value [1] was 84.4 ± 3.4 % control.
In the case of Tween-85, the “Relative 14C-acetate incorporation (% control)” value [1] is reported as 48.8 ± 5.9 % control.
In the case of 1-^13C-oleoyl-Tween, the “13C-18:1 as proportion of the total 18:1” value ([4]; after three hours) is reported as “about 10%”, the “proportion of 13C-label in 18-carbon fatty acids” value ([4]; by 48 hours) is reported as “about 70%” and the “percent of 18:1-ACP containing 13C-oleic acid” value [5] is reported as 46.2±4.2%. The “percent of 18:1 FFA containing 13C-oleic acid” value [5] was 99.1±2.2%.
For `O=C(O)CC(=O)O` [malonate], the “inhibition of 14C-acetate incorporation on malonate feeding” value ([1]; malonate feeding) was “does not cause inhibition”.
`O=C(O)CCC(=O)C(=O)O` [2-oxoglutarate] was tested, and the “ACCase activity, difference between control and Tween-80 fed cultures” value ([2]; in the presence of 5 mM 2-oxoglutarate) was “no differences”.
In the case of `CC(Oc1ccc(Oc2ncc(C(F)(F)F)cc2Cl)cc1)C(=O)O` (centres unmarked) [haloxyfop], the “reduction in ACCase activity” value ([2]; crude extracts treated with haloxyfop) is reported as “about 15%”.
